Experimental findings from US20090076199A1, “RED DYE MIXTURE” (LANXESS DEUTSCHLAND GMBH, priority 2007, published 2009) are described below.

Common to all, as to type: physicochemical
A short description of data set [1]: Maximum solubility of the dyes in methyl benzoate and spectral data of the saturated solutions. The conditions noted are these: for Solubility (maximum solubility): in methyl benzoate; for E11 = Extinction (absorbance) of 1 g of this solution in 100 ml of N-methyl-pyrrolidone, 1 cm cell: saturated solution of the dye alone in methyl benzoate. The method, then:
The maximum solubility of the dyes was determined in methyl benzoate.

Data set [2] in a line: Mass colouring of polystyrene granules, injection moulding at 240° C., fastness. As to conditions: 0.02 g dye per 100 g polystyrene, transparent sheets. How it is done: a) 100 g of polystyrene granules and 0.02 g of the dye from Example 4 are mixed intensely in a drum mixer for 15 min. The dry-stained granules are processed on a screw injection moulding machine at 240° C. This gives transparent bluish red sheets of very good light fastness and migration fastness.

The nature of data set [3]: Mass colouring of transparent polyethylene terephthalate, twin-screw extruder at 280° C., fastness. The conditions noted are these: 0.025 g dye per 100 g transparent polyethylene terephthalate. The method, then:
b) 0.025 g of the dye from Example 4 are mixed with 100 g of a transparent polyethylene terephthalate grade and the mixture is homogenized in a twin-screw extruder at 280° C. This gives a transparent bluish red coloration with good light fastness and migration fastness. After subsequent granulation the coloured plastic can be processed in accordance with the typical methods of thermoplastic shaping.

The nature of data set [4]: Mass colouring of polycarbonate, twin-screw extruder at 290° C., fastness. The conditions noted are these: 0.03 g dye per 100 g polycarbonate. The method, then:
c) 100 g of a commercially customary polycarbonate are dry-mixed in granule form with 0.03 g of the dye from Example 4. The granules dusted in this way are homogenized in a twin-screw extruder at 290° C. This gives a transparent bluish red coloration with good light fastness and migration fastness. The coloured polycarbonate is extruded as a strand from the extruder and processed to granules. The granules can be processed by the typical methods of processing thermoplastic compounds.

On to `Nc1c(Oc2ccc(C3(c4ccc(Oc5cc(O)c6c(c5N)C(=O)c5ccccc5C6=O)cc4)CCCCC3)cc2)cc(O)c2c1C(=O)c1ccccc1C2=O` [Dye (15)], for which, in data set [1], the “Solubility (maximum solubility)” value is reported as 0.57 g/100 ml and the “E11 = Extinction (absorbance) of 1 g of this solution in 100 ml of N-methyl-pyrrolidone, 1 cm cell” value stood at 1.8.

Turning to `Nc1c(OCCOc2ccc(OCCOc3cc(O)c4c(c3N)C(=O)c3ccccc3C4=O)cc2)cc(O)c2c1C(=O)c1ccccc1C2=O` [Example 4], the light fastness entry was “very good” in data set [2], “good” in data set [3] and “good” in data set [4]. Moreover, the migration fastness result is “very good” in data set [2], “good” in data set [3] and “good” in data set [4].

Take `O=C1c2c(Cl)c(Cl)c(Cl)c(Cl)c2C2=Nc3cccc4cccc(c34)N12` [Dye (7), reference compound]: in data set [1], the “Solubility (maximum solubility)” value worked out at 0.107 g/100 ml and the “E11 = Extinction (absorbance) of 1 g of this solution in 100 ml of N-methyl-pyrrolidone, 1 cm cell” value is 0.17.
